Source: US9149038B2, “4-amino-6-(heterocyclic)picolinates and 6-amino-2-(heterocyclic)pyrimidine-4-carboxylates and their use as herbicides” (Dow AgroSciences LLC, priority 2013, dated 2015)
Where two headings read alike, the source gives them in different places.

What was measured:
[1] = tested on: Key Broadleaf Weed and Crop Species; experiment: Post-Emergent Test II: postemergent herbicidal activity, visual rating after 14 d (Table 7); type: in vivo; details: post-emergence, 336 h; for pest or weed control at 35 g/ha: 35 g ai/ha; for pest or weed control at 70 g/ha: 70 g ai/ha; for pest or weed control at 140 g/ha: 140 g ai/ha
How it was run: (§1)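 Plants were raised in a greenhouse for 7-21 d and treated once at the first or second true leaf stage. Compounds, dissolved in 97:3 acetone:DMSO then diluted into an aqueous acetone/isopropanol/crop oil/Triton X-155 carrier, were applied by overhead track sprayer at 187 L/ha. After 14 d with subirrigation, injury was scored visually from 0 (none) to 100 (complete kill).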

[2] = tested on: Key Grass and Sedge Weeds as well as Grass Crops; experiment: Post-Emergent Test II: postemergent herbicidal activity, visual rating after 14 d (Table 8); type: in vivo; details: post-emergence, 336 h; for pest or weed control at 35 g/ha: 35 g ai/ha; for pest or weed control at 70 g/ha: 70 g ai/ha; for pest or weed control at 140 g/ha: 140 g ai/ha
How it was run: as §1

[3] = ABUTH: velvetleaf (Abutilon theophrasti), read-out: Visual Growth Reduction (%) 14 Days After Application ABUTH
[4] = AMARE: redroot pigweed (Amaranthus retroflexus), read-out: Visual Growth Reduction (%) 14 Days After Application AMARE
[5] = BRSNN: oilseed rape, canola (Brassica napus), read-out: Visual Growth Reduction (%) 14 Days After Application BRSNN
[6] = CHEAL: lambsquarters (Chenopodium album), read-out: Visual Growth Reduction (%) 14 Days After Application CHEAL
[7] = EPHHL: wild poinsettia (Euphorbia heterophylla), read-out: Visual Growth Reduction (%) 14 Days After Application EPHHL
[8] = HELAN: sunflower (Helianthus annuus), read-out: Visual Growth Reduction (%) 14 Days After Application HELAN
[9] = barnyardgrass (Echinochloa crus-galli), read-out: Visual Growth Reduction (%) 14 Days After Application, ECHCG
[10] = giant foxtail (Setaria faberi), read-out: Visual Growth Reduction (%) 14 Days After Application, SETFA
[11] = maize, corn (Zea mays), read-out: Visual Growth Reduction (%) 14 Days After Application, ZEAMX
[12] = rice (Oryza sativa), read-out: Visual Growth Reduction (%) 14 Days After Application, ORYSA
[13] = wheat, spring (Triticum aestivum), read-out: Visual Growth Reduction (%) 14 Days After Application, TRZAS
[14] = yellow nutsedge (Cyperus esculentus), read-out: Visual Growth Reduction (%) 14 Days After Application, CYPES

Structure (SMILES)	pest or weed control at 35 g/ha [1, 3]	pest or weed control at 70 g/ha [1, 3]	pest or weed control at 140 g/ha [1, 3]	pest or weed control at 35 g/ha [1, 4]	pest or weed control at 70 g/ha [1, 4]	pest or weed control at 140 g/ha [1, 4]	pest or weed control at 35 g/ha [1, 5]	pest or weed control at 70 g/ha [1, 5]	pest or weed control at 140 g/ha [1, 5]	pest or weed control at 35 g/ha [1, 6]	pest or weed control at 70 g/ha [1, 6]	pest or weed control at 140 g/ha [1, 6]	pest or weed control at 35 g/ha [1, 7]	pest or weed control at 70 g/ha [1, 7]	pest or weed control at 140 g/ha [1, 7]	pest or weed control at 35 g/ha [1, 8]	pest or weed control at 70 g/ha [1, 8]	pest or weed control at 140 g/ha [1, 8]	pest or weed control at 35 g/ha [2, 9]	pest or weed control at 70 g/ha [2, 9]	further results
COC(=O)c1nc(-c2ccc(Cl)c3c2OC(F)(F)O3)nc(N)c1OC [Compound 95]	45 to 59%	75 to 84%	75 to 84%	95 to 100%	95 to 100%	95 to 100%	45 to 59%	45 to 59%	60 to 74%	95 to 100%	95 to 100%	95 to 100%	0 to 29%	0 to 29%	0 to 29%	95 to 100%	95 to 100%	95 to 100%	0 to 29%	0 to 29%	pest or weed control at 140 g/ha [2, 9]: 0 to 29%; pest or weed control at 35 g/ha [2, 10]: 0 to 29%; pest or weed control at 70 g/ha [2, 10]: 0 to 29%; pest or weed control at 140 g/ha [2, 10]: 0 to 29%; pest or weed control at 35 g/ha [2, 11]: 0 to 29%; pest or weed control at 70 g/ha [2, 11]: 0 to 29%; pest or weed control at 140 g/ha [2, 11]: 0 to 29%; pest or weed control at 35 g/ha [2, 12]: 0 to 29%; pest or weed control at 70 g/ha [2, 12]: 0 to 29%; pest or weed control at 140 g/ha [2, 12]: 0 to 29%; pest or weed control at 35 g/ha [2, 13]: 0 to 29%; pest or weed control at 70 g/ha [2, 13]: 0 to 29%; pest or weed control at 140 g/ha [2, 13]: 0 to 29%; pest or weed control at 35 g/ha [2, 14]: 0 to 29%; pest or weed control at 70 g/ha [2, 14]: 45 to 59%; pest or weed control at 140 g/ha [2, 14]: 45 to 59%
COC(=O)c1nc(-c2ccc3c(c2)SCO3)c(F)c(N)c1Cl [Compound 105]	0 to 29%	0 to 29%	0 to 29%	0 to 29%	0 to 29%	45 to 59%	0 to 29%	30 to 44%	60 to 74%	30 to 44%	30 to 44%	60 to 74%	60 to 74%	75 to 84%	85 to 94%	85 to 94%	85 to 94%	95 to 100%	45 to 59%	60 to 74%	pest or weed control at 140 g/ha [2, 9]: 75 to 84%; pest or weed control at 35 g/ha [2, 10]: 0 to 29%; pest or weed control at 70 g/ha [2, 10]: 0 to 29%; pest or weed control at 140 g/ha [2, 10]: 30 to 44%; pest or weed control at 35 g/ha [2, 11]: 0 to 29%; pest or weed control at 70 g/ha [2, 11]: 0 to 29%; pest or weed control at 140 g/ha [2, 11]: 0 to 29%; pest or weed control at 35 g/ha [2, 12]: 0 to 29%; pest or weed control at 70 g/ha [2, 12]: 0 to 29%; pest or weed control at 140 g/ha [2, 12]: 0 to 29%; pest or weed control at 35 g/ha [2, 13]: 0 to 29%; pest or weed control at 70 g/ha [2, 13]: 0 to 29%; pest or weed control at 140 g/ha [2, 13]: 0 to 29%; pest or weed control at 35 g/ha [2, 14]: 0 to 29%; pest or weed control at 70 g/ha [2, 14]: 0 to 29%; pest or weed control at 140 g/ha [2, 14]: 0 to 29%
